Measured values from US20210244704A1, “Cabazitaxel in mCRPC Patients Previously Treated with Docetaxel and Who Failed a Prior androgen signaling targeted inhibitor Agent” (SANOFI MATURE IP, priority 2019, published 2021).

Legend:
[1] = system: mCRPC patients; settings: at 3 months; cited from earlier work
[2] = system: mCRPC patients, safety population; assay: Same clinical study: safety (adverse events, laboratory abnormalities, dose reductions); format: in vivo, human; settings: human, in vivo
Description: For patients in Arm A, cabazitaxel 25 mg/m^2 was administered intravenously over 1 hour every 3 weeks along with oral prednisone 10 mg given daily. Primary prophylactic granulocyte-colony stimulating factor (G-CSF) was required at each cycle for all patients in the cabazitaxel arm
For patients in Arm B, abiraterone acetate was administered orally at 1000 mg once daily along with oral prednisone 5 mg given twice daily or enzalutamide was administered orally at 160 mg once daily continuously. Abiraterone acetate was administered to patients who had received enzalutamide prior to study entry. Enzalutamide was administered to patients who received prior abiraterone acetate.
Cabazitaxel 25 mg/m^2, was administered intravenously over 1 hour every 3 weeks with oral prednisone 10 mg daily. Premedication included an antihistamine, glucocorticoid (dexamethasone 8 mg or equivalent), and histamine 2 receptor antagonist. Antiemetic prophylaxis was administered at physician's discretion. Primary prophylactic granulocyte-colony stimulating factor was required during each cycle of cabazitaxel. Patients received either abiraterone acetate (1000 mg orally once daily and oral prednisone 5 mg twice daily) or enzalutamide (160 mg orally once daily) continuously. A treatment cycle was 3 weeks in both arms. Abiraterone acetate was given to patients who previously received enzalutamide before study entry. Enzalutamide was given to patients who previously received abiraterone acetate.
Up to a maximum of 2 dose reductions was allowed per patient when necessary due to toxicity and according to the table below:
Efficacy analysis used all randomized patients. Stratified log-rank tests were used to analyze time-to-event data. The primary analysis compared radiographic progression-free survival between the two treatment groups using a stratified log-rank test. Survival curves were generated using Kaplan-Meier estimates. Hazard ratios and associated 95% confidence intervals [CI] were estimated using a stratified Cox proportional hazards model. Stratified Cochran-Mantel-Haenszel chi-square tests were used to analyze categorical data. Descriptive statistics were used to summarize patient characteristics. The safety population (randomized patients who received at least one dose of study treatment) was used for all safety analyses.

[3] = system: mCRPC patients; settings: 3 months; cited from earlier work
[4] = system: patients with mCRPC who progressed during or after docetaxel; settings: every 3 weeks with prednisone 10 mg daily; cabazitaxel 25 mg/m^2, mitoxantrone 12 mg/m^2; cited from earlier work

SMILES: CNC(=O)c1ccc(N2C(=S)N(c3ccc(C#N)c(C(F)(F)F)c3)C(=O)C2(C)C)cc1F [enzalutamide, 4-{3-[4-cyano-3-(trifluoromethyl)phenyl]-5,5-dimethyl-4-oxo-2-sulfanylideneimidazolidin-1-yl}-2-fluoro-N-methylbenzamide]
- Patients with imaging-based progression [1]: about 25%

SMILES: CC(=O)O[C@H]1CC[C@@]2(C)C(=CC[C@@H]3[C@@H]2CC[C@]2(C)C(c4cccnc4)=CC[C@@H]32)C1 [abiraterone acetate, (3β)-17-(3-pyridinyl) androsta-5,16-dien-3-yl acetate]
- At least one dose reduction required [2]: 17 patients
- Patients with primary resistance, imaging-based progression at the first visit [3]: about 30%

SMILES: O=C1c2c(O)ccc(O)c2C(=O)c2c(NCCNCCO)ccc(NCCNCCO)c21 [mitoxantrone]
- Median overall survival, TROPIC trial [4]: 12.7 months
